Consider 27 molecules from ChEMBL document CHEMBL1201862, “PubChem BioAssay data set” (2004).

Calls of active or inactive are those of the source. A value given as a limit tells only on which side of the number the result lay.

One series deals with Cytochrome P450 2C19 (Homo sapiens, UniProt P33261). The series can be described thus: Cytochrome panel assay with activity outcomes. Panel member name: p450-cyp2c19 Compounds with AC50 equal or less than 10 uM are considered active. In kind it is functional.
Series [1] in a line: NIH3T3 cell viability loss – ATP luminescence, mouse fibroblasts, counter-screen, dose response (AID 2010).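 Further: cells exposed to compound for about 90 hours before reading.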 The format is functional, cell-based.
Series [2] is described as follows: Trypanosoma cruzi growth suppression in host cells – NIH3T3 host cells, beta-gal luminescence, confirmation (AID 2044).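 Further: intracellular parasites grown in NIH/3T3 mouse fibroblasts as host cells; luminescent beta-galactosidase reporter signal from transgenic T. cruzi replicating inside host cells; inhibitors lower the luminescence signal.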 In kind it is functional, cell-based.
The target of the next series is Cytochrome P450 2C9 (Homo sapiens, UniProt P11712).
Cytochrome P450 2C9, sequence (P11712 whole entry): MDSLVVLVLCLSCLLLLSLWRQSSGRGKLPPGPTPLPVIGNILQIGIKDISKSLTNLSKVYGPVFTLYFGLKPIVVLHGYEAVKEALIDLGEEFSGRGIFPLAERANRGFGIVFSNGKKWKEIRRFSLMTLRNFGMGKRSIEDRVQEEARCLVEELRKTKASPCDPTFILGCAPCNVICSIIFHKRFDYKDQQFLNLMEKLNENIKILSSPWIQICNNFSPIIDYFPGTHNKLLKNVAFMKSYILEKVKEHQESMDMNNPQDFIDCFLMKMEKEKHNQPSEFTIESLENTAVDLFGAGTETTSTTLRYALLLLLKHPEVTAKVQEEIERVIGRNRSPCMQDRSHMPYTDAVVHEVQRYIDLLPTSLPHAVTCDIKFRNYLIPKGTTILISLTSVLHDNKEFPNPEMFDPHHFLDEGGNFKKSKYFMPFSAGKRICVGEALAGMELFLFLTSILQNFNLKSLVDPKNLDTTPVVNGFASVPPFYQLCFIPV

Cytochrome P450 2C19, sequence (P33261 whole entry): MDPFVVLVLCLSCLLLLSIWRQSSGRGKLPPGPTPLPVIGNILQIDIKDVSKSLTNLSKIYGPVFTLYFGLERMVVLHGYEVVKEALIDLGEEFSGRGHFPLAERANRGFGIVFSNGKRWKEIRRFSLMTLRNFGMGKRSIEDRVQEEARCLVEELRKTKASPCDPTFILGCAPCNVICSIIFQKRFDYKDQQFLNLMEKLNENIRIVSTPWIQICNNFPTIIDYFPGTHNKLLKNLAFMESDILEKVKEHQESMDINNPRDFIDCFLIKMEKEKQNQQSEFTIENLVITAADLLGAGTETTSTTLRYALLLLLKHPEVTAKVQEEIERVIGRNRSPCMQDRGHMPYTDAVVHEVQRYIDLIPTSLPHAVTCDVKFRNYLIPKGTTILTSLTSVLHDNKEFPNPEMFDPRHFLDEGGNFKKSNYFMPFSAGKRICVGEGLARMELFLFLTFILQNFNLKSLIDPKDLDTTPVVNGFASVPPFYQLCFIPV

In general, AC50 refers to the concentration giving half of the maximal activity seen. As for `C[C@H]1COC(=O)[C@H]2CCCN2C(=O)[C@@H](C)COC(=O)[C@H](Cc2ccccc2)NC1=O`, on Cytochrome P450 2C19, the AC50 entry was “inconclusive”.

As for `Cc1ccc(CS(=O)(=O)CCC(=O)NCCCN2CCCC2)cc1`, on Cytochrome P450 2C19, the AC50 result was “inconclusive”.

The EC50 is the midpoint of the concentration-response curve. For `CCCn1c2c(c(O)c(C(=O)Nc3ccc(OC)cc3)c1=O)CCCC2`, the EC50 in series [1] is > 30 µM (not active); in series [2], 2.88 µM (active).

Turning to `CN(C)c1nc(NC(C)(C)C)nc(NC(C)(C)C)n1`, the EC50 in series [1] is > 60 µM (not active); in series [2], 0.596 µM (active).

Take `Cc1[nH]c2ccccc2c1C(=O)CN1CC=C(c2ccccc2)CC1`: the EC50 in series [1] was > 60 µM (not active); in series [2], 0.857 µM (active).

Regarding `CCc1cccc(CN2CCC(CNC(=O)Nc3ccc(Cl)cc3)CC2)c1`, the EC50 in series [1] was > 60 µM (not active); in series [2] it was 1.25 µM (active).

`Nc1ccc(Oc2ccc3nc(-c4ccccc4)c(-c4ccc([N+](=O)[O-])cc4)nc3c2)cc1`: the AC50 at Cytochrome P450 2C9 was 3.98 µM (inconclusive).

As to `O=C(c1cc(-c2ccncc2)nc2ccccc12)N1CCN(c2ccc(N3CCOCC3)nn2)CC1`, on Cytochrome P450 2C19 (read-out: AC50), the AC50 is 15.8 µM (inconclusive).

In the case of `COc1ccc(CNC(=O)C2CCCN(Cc3nc(-c4cccc(C)c4)oc3C)C2)cc1` (configuration not stated), the EC50 is > 60 µM (not active) in series [1] and 0.381 µM (active) in series [2].

Take `CCN(CC)S(=O)(=O)N1CCC(C(=O)NCc2ccc(C)cc2)CC1`: the AC50 result at Cytochrome P450 2C19 was “inconclusive”.

Consider `CN1CCN(c2ncnc3ccc(-c4ccc5c(c4)OCO5)cc23)CC1`, for which the AC50 on Cytochrome P450 2C19 (read-out: AC50) is 39.8 µM (inconclusive).

In the case of `Cc1nn(C(C)C(=O)N2CCCC2)c(=O)c2nn(-c3ccccc3)c(C)c12` (configuration not stated), the EC50 in series [1] is > 60 µM (not active); in series [2], 48.4 µM (active).

Take `COc1cc(C(=O)Nc2ccc3c(c2)N(C(=O)CCN(C)C)c2ccccc2CC3)cc(OC)c1OC`: the EC50 is > 60 µM (not active) in series [1] and 0.642 µM (active) in series [2].

For the molecule `Cc1cc(/C=C2/NC(=O)N(Cc3ccccc3F)C2=O)c(C)n1C(C)C`, the EC50 in series [1] is > 60 µM (not active); in series [2], 0.154 µM (active).

Turning to `CSc1nc(N)nc(SCC(=O)C23CC4CC(CC(C4)C2)C3)c1C#N`, the figures for the EC50 in series [1] and in series [2] were > 60 µM (not active) and 1.59 µM (active), respectively.

In the case of `COc1ccc(-c2cnc(N)nc2-c2ccc(OCc3ccccc3)cc2O)cc1`, the EC50 in series [1] is 10.6 µM (active); in series [2] it was 2.19 µM (active).

On to `O=C(Nc1ccccc1N1CCCC1)c1ccc([N+](=O)[O-])cc1Cl`, for which the EC50 in series [1] is > 60 µM (not active); in series [2], 2.37 µM (active).

Consider `CCCN1CCC(N(C)CCc2ccc(OC)c(OC)c2)CC1`, for which the figures for the EC50 in series [1] and in series [2] were > 60 µM (not active) and 0.124 µM (active), respectively.

Consider `Cn1nc([N+](=O)[O-])nc1Sc1ccc(Cl)cc1`, for which the figures for the EC50 in series [1] and in series [2] were > 30 µM (not active) and 0.108 µM (active), respectively.

On to `CCCCNC(=O)C1CCN(Cc2ccccn2)CC1`, for which, on Cytochrome P450 2C19 (read-out: AC50), the AC50 was 35.5 µM (inconclusive).

Regarding `CCN(CC)CCN(C(=O)c1cccc([N+](=O)[O-])c1)c1nc2ccc(OC)cc2s1`, the EC50 in series [1] is > 60 µM (inconclusive); in series [2] it was 0.158 µM (active).

Regarding `O=C(O)C1CCN(c2ncccn2)CC1`, on Cytochrome P450 2C19 (read-out: AC50), the AC50 was 0.0316 µM (inconclusive).

Turning to `CC(=O)c1cccc(Nc2cc(C)nc3c(C)cc(C)cc23)c1`, the EC50 is > 60 µM (inconclusive) in series [1] and 1.42 µM (active) in series [2].

On to `O=C(NC1CCCCC1)C(c1ccccc1)N1CCOCC1` (configuration not stated), for which the AC50 on Cytochrome P450 2C19 (read-out: AC50) is 20 µM (inconclusive).

Regarding `Cc1ccc(/C=N/n2c(S)nnc2COc2ccccc2)s1`, the AC50 at Cytochrome P450 2C19 (read-out: AC50) is 2.24 µM (inconclusive).

With `O=C1C[C@@H](c2ccc(O)cc2)Oc2cc(O)cc(O)c21` [NARINGENIN], the AC50 at Cytochrome P450 2C19 (read-out: AC50) was 3.98 µM (inconclusive).

`CC(=O)Oc1cc(C(F)(F)F)ccc1C(=O)O` [TRIFLUSAL]: at Cytochrome P450 2C19 (read-out: AC50), the concentration at half-maximal activity (AC50) was 3.98 µM (inconclusive).
